Test results from ChEMBL document CHEMBL1201862, “PubChem BioAssay data set” (2004).
The source made the active and inactive calls.

Key:
[1] = target: 1-phosphatidylinositol 4,5-bisphosphate phosphodiesterase beta-3 (Homo sapiens, UniProt Q01970); assay: Fluorescence-based biochemical high throughput dose response assay to identify inhibitors of phospholipase C isozymes (PLC-B3).
[2] = target: 1-phosphatidylinositol 4,5-bisphosphate phosphodiesterase gamma-1 (Homo sapiens, UniProt P19174); assay: Counterscreen for inhibitors of phospholipase C isozymes (PLC-B3): Fluorescence-based biochemical high throughput dose response assay to identify inhibitors of phospholipase C isozymes (PLC-gamma1).
cells = settings: HEK293
[3] = target: Metabotropic glutamate receptor 5 (Rattus norvegicus, UniProt P31424); assay: Identification of a glycine sulfonamide based non-MPEP site positive allosteric potentiator (PAM) of mGlu5 (calcium_assay).; format: functional
Chain of Metabotropic glutamate receptor 5 (P31424 whole entry): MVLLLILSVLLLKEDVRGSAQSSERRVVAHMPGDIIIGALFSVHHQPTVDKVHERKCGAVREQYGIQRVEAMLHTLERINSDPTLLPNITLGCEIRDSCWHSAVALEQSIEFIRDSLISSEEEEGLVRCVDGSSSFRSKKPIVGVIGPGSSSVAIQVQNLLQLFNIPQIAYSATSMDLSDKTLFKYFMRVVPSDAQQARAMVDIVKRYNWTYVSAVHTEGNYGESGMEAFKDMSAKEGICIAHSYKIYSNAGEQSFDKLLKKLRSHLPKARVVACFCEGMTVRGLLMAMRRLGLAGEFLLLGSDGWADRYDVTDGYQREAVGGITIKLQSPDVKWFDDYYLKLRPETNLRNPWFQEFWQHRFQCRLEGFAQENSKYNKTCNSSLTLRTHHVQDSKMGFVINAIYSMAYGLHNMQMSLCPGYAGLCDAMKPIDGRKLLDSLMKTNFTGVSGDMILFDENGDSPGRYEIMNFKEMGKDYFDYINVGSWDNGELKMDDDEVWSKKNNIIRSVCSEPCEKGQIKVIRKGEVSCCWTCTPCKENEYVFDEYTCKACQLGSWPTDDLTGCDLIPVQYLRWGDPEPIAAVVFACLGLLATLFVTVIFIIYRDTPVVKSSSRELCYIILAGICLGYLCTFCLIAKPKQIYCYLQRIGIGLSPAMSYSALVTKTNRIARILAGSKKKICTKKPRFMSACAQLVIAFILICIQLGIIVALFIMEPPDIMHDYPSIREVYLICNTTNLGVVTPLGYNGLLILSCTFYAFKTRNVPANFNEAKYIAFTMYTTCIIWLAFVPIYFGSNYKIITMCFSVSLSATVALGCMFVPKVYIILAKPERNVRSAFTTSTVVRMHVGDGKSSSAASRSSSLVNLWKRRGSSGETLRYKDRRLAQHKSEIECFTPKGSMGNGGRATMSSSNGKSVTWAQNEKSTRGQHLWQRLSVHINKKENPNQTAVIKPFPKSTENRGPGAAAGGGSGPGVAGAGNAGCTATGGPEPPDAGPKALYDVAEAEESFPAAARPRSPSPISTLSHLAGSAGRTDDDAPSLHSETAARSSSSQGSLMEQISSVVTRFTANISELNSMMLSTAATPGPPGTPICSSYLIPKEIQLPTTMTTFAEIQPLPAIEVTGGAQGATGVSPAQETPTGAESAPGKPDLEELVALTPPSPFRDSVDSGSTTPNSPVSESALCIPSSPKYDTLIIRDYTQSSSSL

Ephrin type-A receptor 4 = Ephrin type-A receptor 4 (Mus musculus, UniProt Q03137); assay: inhibitors of EphA4 binding to KYL peptide, primary screen, biochemical, colorimetric, mouse EphA4 (AID 689); format: functional
Chain of Ephrin type-A receptor 4 (Q03137 whole entry): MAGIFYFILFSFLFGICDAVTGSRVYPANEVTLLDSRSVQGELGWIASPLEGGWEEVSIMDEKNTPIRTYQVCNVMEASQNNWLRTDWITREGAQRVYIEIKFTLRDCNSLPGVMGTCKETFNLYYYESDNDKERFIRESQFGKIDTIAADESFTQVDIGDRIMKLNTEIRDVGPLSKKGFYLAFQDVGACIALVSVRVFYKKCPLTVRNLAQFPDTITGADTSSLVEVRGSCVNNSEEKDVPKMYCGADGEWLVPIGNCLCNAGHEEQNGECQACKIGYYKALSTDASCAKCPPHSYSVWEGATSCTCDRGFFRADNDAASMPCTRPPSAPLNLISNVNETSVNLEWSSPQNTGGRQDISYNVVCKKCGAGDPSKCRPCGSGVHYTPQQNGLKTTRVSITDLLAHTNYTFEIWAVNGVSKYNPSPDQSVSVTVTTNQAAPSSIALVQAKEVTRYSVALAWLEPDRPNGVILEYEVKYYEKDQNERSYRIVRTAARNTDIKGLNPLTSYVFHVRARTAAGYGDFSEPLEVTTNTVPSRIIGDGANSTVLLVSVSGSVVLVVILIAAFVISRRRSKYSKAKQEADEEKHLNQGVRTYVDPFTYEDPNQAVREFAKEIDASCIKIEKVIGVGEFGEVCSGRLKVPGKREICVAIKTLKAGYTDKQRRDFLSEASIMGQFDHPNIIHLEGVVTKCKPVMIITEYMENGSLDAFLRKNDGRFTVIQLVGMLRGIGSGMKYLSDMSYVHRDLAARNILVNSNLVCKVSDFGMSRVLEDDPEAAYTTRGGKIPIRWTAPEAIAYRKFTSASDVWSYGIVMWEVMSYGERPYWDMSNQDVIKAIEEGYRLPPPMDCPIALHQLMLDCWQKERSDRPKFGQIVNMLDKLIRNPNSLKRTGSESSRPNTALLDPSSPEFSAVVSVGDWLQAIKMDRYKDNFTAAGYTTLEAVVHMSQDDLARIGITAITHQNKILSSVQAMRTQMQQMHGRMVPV

[4] = control 3'UTR Renilla luciferase suppression, dose response, counter-screen for Shn3 inhibitor project, cell-based, Clone20-Shn3RL, cherry-picked (AID 624133); format: functional
[5] = reduction of Shn3 3'UTR firefly luciferase signal, dose response, Schnurri-3 inhibitor project, cell-based, Clone20 osteoblasts, cherry-pick, set 2 (AID 720490); format: functional;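 further: actives lower the luminescence signal as inhibitors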
[6] = Shn3 3'UTR reporter inhibitors, dose response, cell-based, Clone20 osteoblasts, firefly luciferase, cherry-picked (AID 624132); format: functional;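 further: firefly luciferase luminescence from reporter carrying the Shn3 3'UTR in osteoblasts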
[7] = target: Disintegrin and metalloproteinase domain-containing protein 17 (Homo sapiens, UniProt P78536); assay: ADAM17 protease inhibitors, dose response, counter-screen for ADAM10 exosite inhibitor project, biochemical, quenched FRET substrate (AID 743253)
Chain of Disintegrin and metalloproteinase domain-containing protein 17 (P78536 whole entry, the tested form may be a part): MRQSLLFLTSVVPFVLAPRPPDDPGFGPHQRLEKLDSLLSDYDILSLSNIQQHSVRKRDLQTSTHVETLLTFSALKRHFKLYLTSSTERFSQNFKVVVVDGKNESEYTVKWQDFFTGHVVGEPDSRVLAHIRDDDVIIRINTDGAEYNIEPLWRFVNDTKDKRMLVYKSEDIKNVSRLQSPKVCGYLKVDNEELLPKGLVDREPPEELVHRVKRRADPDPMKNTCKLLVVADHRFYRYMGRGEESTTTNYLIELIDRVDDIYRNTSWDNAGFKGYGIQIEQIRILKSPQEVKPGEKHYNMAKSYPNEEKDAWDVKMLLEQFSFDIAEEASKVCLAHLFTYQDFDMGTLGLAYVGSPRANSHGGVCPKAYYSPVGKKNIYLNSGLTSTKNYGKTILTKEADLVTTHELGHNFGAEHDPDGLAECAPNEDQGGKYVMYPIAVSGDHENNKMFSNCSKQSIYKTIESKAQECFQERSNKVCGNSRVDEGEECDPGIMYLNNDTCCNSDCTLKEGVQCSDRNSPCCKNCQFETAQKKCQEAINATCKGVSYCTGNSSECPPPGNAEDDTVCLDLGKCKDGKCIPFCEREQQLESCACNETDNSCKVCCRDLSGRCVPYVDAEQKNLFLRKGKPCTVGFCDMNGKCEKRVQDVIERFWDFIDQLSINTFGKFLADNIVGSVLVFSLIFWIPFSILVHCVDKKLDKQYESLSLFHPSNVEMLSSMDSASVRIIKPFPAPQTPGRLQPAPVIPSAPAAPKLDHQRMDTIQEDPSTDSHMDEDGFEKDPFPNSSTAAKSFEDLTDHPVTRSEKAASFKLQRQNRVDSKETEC

[8] = test system: Streptococcus sp. 'group A'; assay: growth inhibition of control SK(-) GAS strain, dose response, counter-screen for streptokinase expression inhibitor project, luminescence, kanamycin, BacTiterGlo, confirmation (AID 1900); format: functional, organism-based
Streptokinase A = target: T1, Streptokinase A (Streptococcus pyogenes serotype M1, UniProt P10520); assay: S. pyogenes streptokinase expression inhibitors, potency, dose response, plasminogen activation absorbance, OD405 (AID 1914); format: functional, Streptococcus pyogenes M1 GAS;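 further: secreted streptokinase activity via plasminogen activation per viability signal from cell pellet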
T1 sequence (P10520 whole entry): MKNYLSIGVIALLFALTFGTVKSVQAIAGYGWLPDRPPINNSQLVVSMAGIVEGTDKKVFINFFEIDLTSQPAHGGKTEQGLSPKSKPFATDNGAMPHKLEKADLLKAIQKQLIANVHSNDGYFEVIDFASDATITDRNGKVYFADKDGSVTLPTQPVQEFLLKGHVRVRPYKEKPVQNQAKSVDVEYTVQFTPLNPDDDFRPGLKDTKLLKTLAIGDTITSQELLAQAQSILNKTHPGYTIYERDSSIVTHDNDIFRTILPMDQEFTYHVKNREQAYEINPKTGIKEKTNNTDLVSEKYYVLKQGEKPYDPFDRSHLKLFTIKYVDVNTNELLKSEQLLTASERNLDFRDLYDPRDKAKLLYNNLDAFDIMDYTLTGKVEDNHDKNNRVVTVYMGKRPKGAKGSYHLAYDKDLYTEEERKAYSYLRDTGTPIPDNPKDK

Streptococcus = assay: Group A Streptococcus viability loss, dose response, counter-screen for streptokinase expression inhibitor project, luminescence, BacTiterGlo (AID 1915); format: functional, organism-based;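 further: potency for reduction of bacterial viability or growth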
[9] = ADAM10 inhibitors, peptide cleavage, dose response, biochemical, QFRET (AID 743254);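 further: ADAM10 enzyme with the DM2 quenched FRET peptide as substrate; EDANS fluorescence gain as the protease cuts the substrate; inhibitor potency against ADAM10 proteolytic activity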
[10] = target: T2, Methionyl-tRNA synthetase, putative (Trypanosoma brucei brucei, UniProt Q38C91); format: functional, Trypanosoma brucei brucei strain 927/4 GUTat10.1
T2 sequence (Q38C91 whole entry): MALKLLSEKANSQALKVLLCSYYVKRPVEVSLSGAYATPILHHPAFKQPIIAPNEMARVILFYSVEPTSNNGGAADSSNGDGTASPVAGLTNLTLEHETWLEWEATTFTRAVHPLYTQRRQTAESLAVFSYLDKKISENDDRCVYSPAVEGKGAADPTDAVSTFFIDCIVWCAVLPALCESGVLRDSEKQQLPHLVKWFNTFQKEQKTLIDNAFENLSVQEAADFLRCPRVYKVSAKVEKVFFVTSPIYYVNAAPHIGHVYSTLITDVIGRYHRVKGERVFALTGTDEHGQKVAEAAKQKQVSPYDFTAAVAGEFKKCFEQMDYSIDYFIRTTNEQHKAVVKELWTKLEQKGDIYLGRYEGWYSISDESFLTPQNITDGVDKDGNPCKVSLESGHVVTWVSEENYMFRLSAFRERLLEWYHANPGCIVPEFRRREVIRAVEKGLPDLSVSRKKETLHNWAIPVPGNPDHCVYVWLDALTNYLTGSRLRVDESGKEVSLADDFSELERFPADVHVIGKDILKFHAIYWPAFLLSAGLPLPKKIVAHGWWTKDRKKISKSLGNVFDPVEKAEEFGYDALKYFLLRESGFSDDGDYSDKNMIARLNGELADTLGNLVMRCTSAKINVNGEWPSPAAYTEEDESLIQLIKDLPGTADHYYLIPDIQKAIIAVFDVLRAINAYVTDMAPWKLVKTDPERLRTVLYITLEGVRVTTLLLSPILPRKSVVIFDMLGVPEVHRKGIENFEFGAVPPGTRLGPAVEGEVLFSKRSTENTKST

[11] = Counterscreen for inhibitors of Trypanosoma brucei methionyl tRNA synthetase (MetRS): Luminescence-based cell-based high throughput dose response assay to identify compounds that are cytotoxic to Jurkat human T lymphocyte cells.; format: functional
[12] = target: T2, Methionyl-tRNA synthetase, putative; format: functional, Trypanosoma brucei brucei strain 927/4 GUTat10.1; remark: listed apart in the source
[13] = Late stage counterscreen for inhibitors of Trypanosoma brucei methionyl tRNA synthetase (MetRS): Luminescence-based cell-based high throughput dose response assay to identify compounds that are cytotoxic to Jurkat human T lymphocyte cells.; format: functional

Chain of 1-phosphatidylinositol 4,5-bisphosphate phosphodiesterase beta-3 (Q01970 whole entry): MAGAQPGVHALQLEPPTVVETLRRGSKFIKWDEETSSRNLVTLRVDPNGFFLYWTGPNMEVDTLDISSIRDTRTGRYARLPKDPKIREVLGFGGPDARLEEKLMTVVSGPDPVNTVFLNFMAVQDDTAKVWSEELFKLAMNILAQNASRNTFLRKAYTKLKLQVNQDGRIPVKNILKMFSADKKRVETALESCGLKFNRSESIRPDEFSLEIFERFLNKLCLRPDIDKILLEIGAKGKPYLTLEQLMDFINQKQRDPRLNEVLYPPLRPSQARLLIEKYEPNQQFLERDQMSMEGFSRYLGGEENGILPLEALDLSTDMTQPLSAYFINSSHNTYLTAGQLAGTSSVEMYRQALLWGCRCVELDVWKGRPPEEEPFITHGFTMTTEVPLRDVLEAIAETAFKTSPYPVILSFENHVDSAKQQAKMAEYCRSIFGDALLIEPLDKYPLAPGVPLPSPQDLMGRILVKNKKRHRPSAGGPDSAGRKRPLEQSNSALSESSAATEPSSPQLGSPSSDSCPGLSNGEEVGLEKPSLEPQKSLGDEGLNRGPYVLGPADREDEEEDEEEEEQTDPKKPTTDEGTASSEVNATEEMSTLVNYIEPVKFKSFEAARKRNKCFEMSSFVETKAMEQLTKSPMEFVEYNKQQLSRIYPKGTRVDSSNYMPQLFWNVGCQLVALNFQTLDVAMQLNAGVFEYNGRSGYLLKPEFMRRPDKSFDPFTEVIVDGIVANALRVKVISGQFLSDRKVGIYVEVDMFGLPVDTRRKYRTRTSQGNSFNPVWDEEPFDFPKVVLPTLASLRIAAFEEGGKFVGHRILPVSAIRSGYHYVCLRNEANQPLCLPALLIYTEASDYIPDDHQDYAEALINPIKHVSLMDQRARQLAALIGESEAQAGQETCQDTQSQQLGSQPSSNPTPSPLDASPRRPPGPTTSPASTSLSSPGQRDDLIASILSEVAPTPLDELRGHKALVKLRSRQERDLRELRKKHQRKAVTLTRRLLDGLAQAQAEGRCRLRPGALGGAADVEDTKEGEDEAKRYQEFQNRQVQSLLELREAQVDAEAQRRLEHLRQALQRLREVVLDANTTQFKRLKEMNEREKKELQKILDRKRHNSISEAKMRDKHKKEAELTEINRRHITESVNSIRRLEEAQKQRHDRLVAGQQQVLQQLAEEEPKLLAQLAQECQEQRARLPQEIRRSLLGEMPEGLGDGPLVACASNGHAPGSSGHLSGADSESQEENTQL

With `O=[N+]([O-])c1ccc2[nH]cc(S(=O)(=O)N3CCN(c4cccc(Cl)c4)CC3)c2c1` the IC50 [1] was > 122 µM (inactive) and the IC50 [2] was > 122 µM (inactive).
With `COc1ccc(CCNC(=O)CSc2cn(Cc3cccc(C)c3)c3ccccc23)cc1OC` the AC50 (cells) was > 52 µM (inactive).
For `CS(=O)(=O)N(CC(=O)Nc1cccc(Cl)c1)c1ccccc1Cl`, the EC50 [3] was 0.051 µM and the IC50 (Ephrin type-A receptor 4) was > 100 µM (not active).
For `O=C(COC(=O)c1[nH]nc2ccccc12)Nc1ccc(S(=O)(=O)N2CCCC2)cc1`, the AC50 [4] was 36.1 µM (active), the AC50 [5] was 31.8 µM (active) and the AC50 [6] was 5.33 µM (active).
In the case of `O=C(OCc1ccc(-c2ccccc2)cc1)c1cccc(O)c1`, the IC50 [7] is reported as > 69.5 µM (inactive), the EC50 [8] is reported as 11.4 µM (active) and the EC50 (Streptokinase A) is reported as 22.4 µM (active). For the same molecule, the EC50 (Streptococcus) was 19 µM (active) and the IC50 [9] was > 7.72 µM (active).
With `O=C(Cn1cc(C(=O)C(=O)N2CCOCC2)c2ccccc21)Nc1cccc(C(F)(F)F)c1` the IC50 [10] was 0.205 µM (active), the IC50 [11] was 77.5 µM (inactive) and the IC50 [12] was 0.352 µM (active). The IC50 [13] was > 83.3 µM (inactive).
